Patent US5565441A, “Phosphonoacetic esters and acids as anti-inflammatories” (The Upjohn Company, priority 1995, dated 1996)

test system: DTH granuloma (DTH GRA) lesion in mBSA-sensitized mice; assay: Delayed Type Hypersensitivity Granuloma Assay (DTH GRA) model for inflammation; format: in vivo, mouse; conditions: 10 MPK, PO; mBSA-sensitized mice, mBSA-soaked filter excised after nine days
Description: The Formula I compounds of this invention have been tested in a Delayed Type Hypersensitivity Granuloma Assay (DTH GRA) model for inflammation. This assay is described by Dunn, C. J. et al., "Development of a delayed-type hypersensitivity granuloma model in the mouse for the study of chronic immune-mediated inflammatory disease," Agents and Actions, 27, 3/4 (1989) and "Murine Delayed-Type Hypersensitivity Granuloma," Int. J. Immunopharmc., 12, 8, 899-904 (1990).
Briefly, mBSA-sensitized mice have a DTH granuloma (DTH GRA) lesion induced by subcutaneously implanting a mBSA-soaked filter which is excised after nine days. Compounds are administered to the mice to determine their effect on the lesions. The results are recorded as percent inhibition. […] Inhibition of 10 to 20% is considered to indicate anti-granuloma activity. Greater than 30% inhibition is good activity.

Compound | % Inhibition (DTH granuloma) [%]
CCOC(=O)C1=NNC(C(=O)OC)(P(=O)(OC)OC)C1 (stereo not drawn) [Compound 8, 1H-Pyrazole-5-carboxylic-acid, 3-carboethoxy-5-(dimethoxyphosphinyl)-4,5-dihydro, methyl ester] | 59

same assay, conditions: Mus musculus, 216 h; 10 MPK, PO; mBSA-sensitized mice, mBSA-soaked filter excised after nine days; read-out: % Inhibition (DTH granuloma)

Compound | inhibition in vivo at 10 mg/kg [%]
COC(=O)C(CCC(=O)c1cccc(F)c1)P(=O)(OC)OC (stereo not drawn) [Compound 2, Benzenepentanoic acid, α-(dimethoxyphosphinyl)-3-fluoro-δ-oxo-,methyl ester] | 26
CCOC(=O)C(CC(C(=O)c1ccccc1)c1ccccc1)P(=O)(OCC)OCC (stereo not drawn) [Compound 3, Benzenepentanoic acid, α-(diethoxyphosphinyl)-δ-oxo-γ-phenyl-, ethyl ester] | 21
COC(=O)C(CCC(=O)c1cccnc1)P(=O)(OC)OC (stereo not drawn) [Compound 4, 3-Pyridinepentanoic acid, α-(dimethoxyphosphinyl)-δ-oxo-, methyl ester] | 37
COC(=O)C(CCc1nc(-c2ccccc2)cc(=O)n1C)P(=O)(OC)OC (stereo not drawn) [Compound 6a, 2-Pyrimidinebutanoic acid, α-(dimethoxyphosphinyl)-1,6-dihydro-1-methyl-6-oxo-4-phenyl-, methyl ester] | 51
COC(=O)C(CCc1nc(-c2ccccc2)cc(=O)n1C)P(=O)(O)O (stereo not drawn) [Compound 6b] | 37
COC(=O)C(CCc1cc(C)nc2c(C#N)c(C)nn12)P(=O)(OC)OC (stereo not drawn) [Compound 7, Pyrazolo(1,5-a)pyrimidine-7-butanoic acid, 3-cyano-α-(dimethoxyphosphinyl)-2,5-dimethyl-, methyl ester] | 38
COC(=O)C1(P(=O)(OC)OC)CC(C(=O)c2ccccc2)=NN1 (stereo not drawn) [Compound 9, 1H-Pyrazole-5-carboxylic acid, 3-benzoyl-5-(dimethoxyphosphinyl)-4,5-dihydro-, methyl ester] | 37
COC(=O)C1(P(=O)(OC)OC)CC1C(=O)c1ccccc1 (stereo not drawn) [Compound 10, Cyclopropanecarboxylic acid, 2-benzoyl-1-(dimethoxyphosphinyl)-, methyl ester] | 47
COP(=O)(OC)C(CCc1nc(-c2ccccc2)cc(=O)n1C)C(=O)OC(C)(C)C (stereo not drawn) [Compound 15, 2-Pyrimidine butanoic acid, α-(dimethoxyphosphinyl)-1,6-dihydro-1-methyl-6-oxo-4-phenyl, dimethylethyl ester] | 21

same assay, conditions: Mus musculus, 216 h; at 50 MPK, PO; mBSA-sensitized mice, mBSA-soaked filter excised after nine days

Compound | inhibition in vivo at 50 mg/kg [%]
CCOC(=O)C(CCC(=O)c1ccccc1)P(=O)(OCC)OCC (stereo not drawn) [Compound 1, Benzenepentanoic acid, α-(diethoxyphosphinyl)-δ-oxo-, ethyl ester] | 37

same assay, conditions: Mus musculus, po, 216 h, read-out: % Inhibition (DTH granuloma)

Compound | inhibition in vivo at 10 mg/kg [%]
COC(=O)C1(P(=O)(OC)OC)CN1N1C(=O)c2ccccc2C1=O (stereo not drawn) [Compound 11, 2-Aziridinecarboxylic acid, 1-(1,3-dihydro-1,3-dioxo-2H-isoindol-2-yl)-2-(dimethoxyphosphinyl)-, methyl ester] | 42
